Values after ≈ are worked out from the molar mass of the structure shown.
Experiments:
MDA-MB-468 = assay: Cytotoxicity against human MDA-MB-468 assessed as cell growth at high concentration; format: functional
T47D = assay: Cytotoxicity against human T47D assessed as cell growth at high concentration; format: functional
BT-549 = assay: Cytotoxicity against human BT549 assessed as cell growth at high concentration; format: functional
Hs-578T = assay: Cytotoxicity against human Hs 578T assessed as cell growth at high concentration; format: functional
MCF7 = assay: Cytotoxicity against human MCF7 assessed as cell growth at high concentration; format: functional
SN12C = assay: Cytotoxicity against human SN12C assessed as cell growth at high concentration; format: functional
ACHN = assay: Cytotoxicity against human ACHN assessed as cell growth at high concentration; format: functional
A498 = assay: Cytotoxicity against human A498 assessed as cell growth at high concentration; format: functional
786-0 = assay: Cytotoxicity against human 786-0 assessed as cell growth at high concentration; format: functional
SK-OV-3 = assay: Cytotoxicity against human SKOV3 assessed as cell growth at high concentration; format: functional
[1] = Cytotoxicity against human NCI-ADR-RES assessed as cell growth at high concentration; format: functional
OVCAR-5 = assay: Cytotoxicity against human OVCAR5 assessed as cell growth at high concentration; format: functional
OVCAR-8 = assay: Cytotoxicity against human OVCAR8 assessed as cell growth at high concentration; format: functional
OVCAR-4 = assay: Cytotoxicity against human OVCAR4 assessed as cell growth at high concentration; format: functional
OVCAR-3 = assay: Cytotoxicity against human OVCAR3 assessed as cell growth at high concentration; format: functional
IGROV-1 = assay: Cytotoxicity against human IGROV1 assessed as cell growth at high concentration; format: functional
SK-MEL-28 = assay: Cytotoxicity against human SK-MEL-28 assessed as cell growth at high concentration; format: functional
Malme-3M = assay: Cytotoxicity against human MALME-3M assessed as cell growth at high concentration; format: functional
LOX IMVI = assay: Cytotoxicity against human LOXIMVI assessed as cell growth at high concentration; format: functional
SNB-75 = assay: Cytotoxicity against human SNB75 assessed as cell growth at high concentration; format: functional
U-251 = assay: Cytotoxicity against human U251 assessed as cell growth at high concentration; format: functional
SF-539 = assay: Cytotoxicity against human SF539 assessed as cell growth at high concentration; format: functional
NCI-H23 = assay: Cytotoxicity against human NCI-H23 assessed as cell growth at high concentration; format: functional
NCI-H226 = assay: Cytotoxicity against human NCI-H226 assessed as cell growth at high concentration; format: functional
HOP-62 = assay: Cytotoxicity against human HOP62 assessed as cell growth at high concentration; format: functional
HOP-92 = assay: Cytotoxicity against human HOP92 assessed as cell growth at high concentration; format: functional
EKVX = assay: Cytotoxicity against human EKVX assessed as cell growth at high concentration; format: functional
A549 = assay: Cytotoxicity against human A549 assessed as cell growth at high concentration; format: functional
RPMI-8226 = assay: Cytotoxicity against human RPMI8226 assessed as cell growth at high concentration; format: functional
MOLT-4 = assay: Cytotoxicity against human MOLT4 assessed as cell growth at high concentration; format: functional
K562 = assay: Cytotoxicity against human K562 assessed as cell growth at high concentration; format: functional
[2] = Cytotoxicity against human MT4 cells by MTT assay; format: cell-based
[3] = tested on: Human immunodeficiency virus 2; assay: Antiviral activity against HIV2 ROD infected in MT4 cells assessed as inhibition of virus-induced cytopathogenicity by MTT assay; format: functional, organism-based; settings: Human immunodeficiency virus 2, ISOLATE ROD
Human alphaherpesvirus 3 [4] = assay: Antiviral activity against thymidine kinase-deficient Varicella-zoster virus infected in HEL cells assessed as reduction in plaque formation; format: functional, organism-based; settings: Human alphaherpesvirus 3, HEL
SF-268 = assay: Cytotoxicity against human SF268 assessed as cell growth at high concentration; format: functional
SW-620 = assay: Cytotoxicity against human SW620 assessed as cell growth at high concentration; format: functional
KM12 = assay: Cytotoxicity against human KM12 assessed as cell growth at high concentration; format: functional
HCT-15 = assay: Cytotoxicity against human HCT15 assessed as cell growth at high concentration; format: functional
HT-29 = assay: Cytotoxicity against human HT-29 assessed as cell growth at high concentration; format: functional
COLO 205 = assay: Cytotoxicity against human COLO205 assessed as cell growth at high concentration; format: functional
NCI-H322M = assay: Cytotoxicity against human NCI-H322M assessed as cell growth at high concentration; format: functional
Human alphaherpesvirus 3 [5] = assay: Antiviral activity against Varicella-zoster virus Oka expressing thymidine kinase infected in HEL cells assessed as reduction in plaque formation; format: functional, organism-based; settings: Human alphaherpesvirus 3, strain Oka vaccine
[6] = Cytotoxicity against human HEL cells; format: cell-based
Cytomegalovirus [7] = assay: Antiviral activity against Cytomegalovirus Davis in HEL cells assessed as reduction in plaque formation; format: functional, organism-based; settings: Human betaherpesvirus 5, Davis
[8] = Cytotoxicity against human HEL cells assessed as alteration in cell morphology; format: cell-based
Cytomegalovirus [9] = assay: Antiviral activity against Cytomegalovirus AD-169 infected in HEL cells assessed as reduction in plaque formation; format: functional, organism-based; settings: Human betaherpesvirus 5, AD-169, HEL
Aspergillus niger [10] = assay: Antifungal activity against Aspergillus niger MTCC 282; format: functional
Aspergillus clavatus [11] = assay: Antifungal activity against Aspergillus clavatus MTCC 1323; format: functional
Aspergillus niger [12] = assay: Antifungal activity against Aspergillus niger MTCC 282 at 250 ug/ml after 74 hrs by Kirby-Bauer method; format: functional; settings: MTCC 282, 74 h, read-out: IZ
Aspergillus clavatus [13] = assay: Antifungal activity against Aspergillus clavatus MTCC 1323 at 250 ug/ml after 74 hrs by Kirby-Bauer method; format: functional; settings: MTCC 1323, 74 h, read-out: IZ
Candida albicans = assay: Antifungal activity against Candida albicans MTCC 227 at 250 ug/ml after 74 hrs by Kirby-Bauer method; format: functional; settings: MTCC 227, 74 h, read-out: IZ
Escherichia coli [14] = assay: Antibacterial activity against Escherichia coli MTCC 443 after 24 hrs by broth dilution method; format: functional; settings: MTCC 443, 24 h
Pseudomonas aeruginosa = assay: Antibacterial activity against Pseudomonas aeruginosa MTCC 424 at 250 ug/ml after 24 hrs by Kirby-Bauer method; format: functional; settings: MTCC 424, 24 h, read-out: IZ
Escherichia coli [15] = assay: Antibacterial activity against Escherichia coli MTCC 443 at 250 ug/ml after 24 hrs by Kirby-Bauer method; format: functional; settings: MTCC 443, 24 h, read-out: IZ
Streptococcus pyogenes = assay: Antibacterial activity against Streptococcus pyogenes MTCC 442 at 250 ug/ml after 24 hrs by Kirby-Bauer method; format: functional; settings: MTCC 442, 24 h, read-out: IZ
Staphylococcus aureus = assay: Antibacterial activity against Staphylococcus aureus MTCC 96 at 250 ug/ml after 24 hrs by Kirby-Bauer method; format: functional; settings: MTCC 96, 24 h, read-out: IZ

With Cc1ccc(-[n+]2noc([O-])c2CN2CCN(c3cccc(Cl)c3)CC2)cc1 the Activity (MDA-MB-468) was 80.15%, the Activity (T47D) was 72.96% and the Activity (BT-549) was 98.47%. For the same molecule, the Activity (Hs-578T) was 92.29%, the Activity (MCF7) was 92.1% and the Activity (SN12C) was 87.71%. The Activity (ACHN) was 87.78%, the Activity (A498) was 51.7% and the Activity (786-0) was 101.4%. It also gave an Activity (SK-OV-3) of 99.53%, an Activity [1] of 97.44% and an Activity (OVCAR-5) of 94.62%. It also gave an Activity (OVCAR-8) of 94.91%, an Activity (OVCAR-4) of 89.31% and an Activity (OVCAR-3) of 88.44%. For the same molecule, the Activity (IGROV-1) was 98.49%, the Activity (SK-MEL-28) was 98.44% and the Activity (Malme-3M) was 95.22%. For the same molecule, the Activity (LOX IMVI) was 99.09%, the Activity (SNB-75) was 99.33% and the Activity (U-251) was 82.08%. The Activity (SF-539) was 92.15%, the Activity (NCI-H23) was 95.83% and the Activity (NCI-H226) was 79.22%. The Activity (HOP-62) was 86.8%, the Activity (HOP-92) was 72.29% and the Activity (EKVX) was 88.38%. It also gave an Activity (A549) of 96.53%, an Activity (RPMI-8226) of 72.54% and an Activity (MOLT-4) of 88.5%. It also gave an Activity (K562) of 53.83%, a CC50 [2] of 27.4 µg/mL (≈ 71.3 µM) and an IC50 [3] of over 27.4 µg/mL. For the same molecule, the EC50 (Human alphaherpesvirus 3 [4]) was over 20 µg/mL, the Activity (SF-268) was 88.36% and the Activity (SW-620) was 92.74%. For the same molecule, the Activity (KM12) was 99.21%, the Activity (HCT-15) was 77.65% and the Activity (HT-29) was 90.87%. It also gave an Activity (COLO 205) of 89.45%, an Activity (NCI-H322M) of 106.64% and an EC50 (Human alphaherpesvirus 3 [5]) of over 20 µg/mL. It also gave a CC50 [6] of 38.2 µg/mL (≈ 99.3 µM), an EC50 (Cytomegalovirus [7]) of over 20 µg/mL and an MCC [8] of 100 µg/mL. For the same molecule, the EC50 (Cytomegalovirus [9]) was 15.3 µg/mL (≈ 39.8 µM), the MIC (Aspergillus niger [10]) was 500 µg/mL (≈ 1300 µM) and the MIC (Aspergillus clavatus [11]) was 200 µg/mL (≈ 520 µM). The zone of inhibition at 250 µg/mL (Aspergillus niger [12]) was 23 mm, the zone of inhibition at 250 µg/mL (Aspergillus clavatus [13]) was 24 mm and the zone of inhibition at 250 µg/mL (Candida albicans) was 21 mm. For the same molecule, the MIC (Escherichia coli [14]) was 100 µg/mL (≈ 260 µM), the zone of inhibition at 250 µg/mL (Pseudomonas aeruginosa) was 21 mm and the zone of inhibition at 250 µg/mL (Escherichia coli [15]) was 22 mm. The zone of inhibition at 250 µg/mL (Streptococcus pyogenes) was 20 mm and the zone of inhibition at 250 µg/mL (Staphylococcus aureus) was 22 mm.
For Cc1ccc(-[n+]2noc([O-])c2CN2CCNCC2)cc1, the Activity (MDA-MB-468) was 101.9%, the Activity (T47D) was 106.04% and the Activity (BT-549) was 110.58%. For the same molecule, the Activity (Hs-578T) was 101.05%, the Activity (MCF7) was 90.74% and the Activity (SN12C) was 91.43%. The Activity (ACHN) was 92.05%, the Activity (A498) was 91.02% and the Activity (786-0) was 105.96%. For the same molecule, the Activity (SK-OV-3) was 97.27%, the Activity [1] was 99.62% and the Activity (OVCAR-5) was 96.81%. The Activity (OVCAR-8) was 104.3%, the Activity (OVCAR-4) was 114.7% and the Activity (OVCAR-3) was 101.12%. For the same molecule, the Activity (IGROV-1) was 101.72%, the Activity (SK-MEL-28) was 105.58% and the Activity (Malme-3M) was 109.79%. It also gave an Activity (LOX IMVI) of 92.56%, an Activity (SNB-75) of 145.71% and an Activity (U-251) of 91.33%. It also gave an Activity (SF-539) of 101.2%, an Activity (NCI-H23) of 101.63% and an Activity (NCI-H226) of 84.85%. It also gave an Activity (HOP-62) of 90.65%, an Activity (HOP-92) of 76.22% and an Activity (EKVX) of 104.33%. The Activity (A549) was 99.61%, the Activity (RPMI-8226) was 100.12% and the Activity (MOLT-4) was 117.17%. For the same molecule, the Activity (K562) was 120.22%, the CC50 [2] was 32.6 µg/mL (≈ 119 µM) and the IC50 [3] was over 32.6 µg/mL. The EC50 (Human alphaherpesvirus 3 [4]) was over 20 µg/mL, the Activity (SF-268) was 95.92% and the Activity (SW-620) was 96.29%. For the same molecule, the Activity (KM12) was 91.06%, the Activity (HCT-15) was 102.72% and the Activity (HT-29) was 105.21%. It also gave an Activity (COLO 205) of 99.98%, an Activity (NCI-H322M) of 103.75% and an EC50 (Human alphaherpesvirus 3 [5]) of over 20 µg/mL. For the same molecule, the CC50 [6] was 46 µg/mL (≈ 168 µM), the EC50 (Cytomegalovirus [7]) was over 20 µg/mL and the MCC [8] was 100 µg/mL. For the same molecule, the EC50 (Cytomegalovirus [9]) was over 20 µg/mL, the MIC (Aspergillus niger [10]) was 200 µg/mL (≈ 729 µM) and the MIC (Aspergillus clavatus [11]) was 200 µg/mL (≈ 729 µM). For the same molecule, the zone of inhibition at 250 µg/mL (Aspergillus niger [12]) was 25 mm, the zone of inhibition at 250 µg/mL (Aspergillus clavatus [13]) was 24 mm and the zone of inhibition at 250 µg/mL (Candida albicans) was 21 mm. The MIC (Escherichia coli [14]) was 100 µg/mL (≈ 365 µM), the zone of inhibition at 250 µg/mL (Pseudomonas aeruginosa) was 23 mm and the zone of inhibition at 250 µg/mL (Escherichia coli [15]) was 21 mm. The zone of inhibition at 250 µg/mL (Streptococcus pyogenes) was 17 mm and the zone of inhibition at 250 µg/mL (Staphylococcus aureus) was 17 mm.

Reference: ChEMBL document CHEMBL3044741, “Synthesis of novel biologically active methylene derivatives of sydnones” (Med Chem Res, 2013)
